The values that follow come from patent US20170369523A1, “TEMPLATE-FIXED BETA-HAIRPIN PEPTIDOMIMETICS THAT ARE LIGANDS FOR G-PROTEIN-COUPLED RECEPTORS (GPCRS) AND ARE MODULATORS OF TRANSCRIPTION FACTORS AND COACTIVATORS” (POLYPHOR AG, priority 2008, published 2017).

Read-outs that look alike come from different tables or passages of the source. Bridge positions count the residues as written; N and C are the ends. Square brackets hold non-standard residues; d marks the D form. Peptide text beside a SMILES is read from it. Orn = NCCC[C@H](N)C(=O)O Bounds are passed on as bounds.

Data set [1] relates to human red blood cells (hRBC). The format is cell-based. To be noted: red cells of human, 1 h. The method, then: The peptides were tested for their hemolytic activity against human red blood cells (hRBC). Fresh hRBC were washed three times with phosphate buffered saline (PBS) and centrifuged for 10 min at 2000×g. Compounds (100 μM) were incubated with 20% hRBC (v/v) for 1 h at 37° C. The final erythrocyte concentration was approximately 0.9×10^9 cells/mL. A value of 0% and 100% cell lyses, respectively, was determined by incubation of hRBC in the presence of PBS alone and 0.1% Triton X-100 in H2O, respectively. The samples were centrifuged, the supernatants were 20-fold diluted in PBS buffer and the optical densities (OD) were measured at 540 nm. The 100% lyses value (OD540H2O) gave an OD540 of approximately 1.3-1.8. Percent hemolysis was calculated as follows: […]

Data set [2] concerns the target T1, human UTR2 receptor (Homo sapiens, UniProt Q9UKP6).
T1 construct: expressed in transfected cells; host or cells: mouse pre-B cell line 300-19
T1 sequence (Q9UKP6 1-389): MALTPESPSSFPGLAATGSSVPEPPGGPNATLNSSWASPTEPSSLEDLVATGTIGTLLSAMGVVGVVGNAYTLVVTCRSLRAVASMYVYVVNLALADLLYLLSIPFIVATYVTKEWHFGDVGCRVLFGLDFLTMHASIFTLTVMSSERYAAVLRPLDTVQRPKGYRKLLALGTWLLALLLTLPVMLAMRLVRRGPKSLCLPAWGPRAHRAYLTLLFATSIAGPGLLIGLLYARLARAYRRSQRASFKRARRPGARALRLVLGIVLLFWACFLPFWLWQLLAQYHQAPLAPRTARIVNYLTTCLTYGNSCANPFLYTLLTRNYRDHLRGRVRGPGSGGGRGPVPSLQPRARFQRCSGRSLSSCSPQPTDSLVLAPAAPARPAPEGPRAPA
Description: Ca2+ assay: UTR2 receptor-agonizing and antagonizing activity (calcium mobilization, Flexstation). The class given is cell-based. The source says: 2.3. Ca^2+− Assay: UTR2 Receptor-Agonizing and Antagonizing Activity of the Peptides
The mouse pre-B cell line 300-19 was stably transfected with the cDNA encoding the human UTR2 receptor (GenBank Acc# NM_018949), and expression was confirmed with a positive calcium signal in response to human urotensin (Sigma Aldrich). Increases in intracellular calcium were monitored using a Flexstation 384 (Molecular Devices, Sunnyvale, Calif.). The cells were batch loaded with the Calcium 4 Assay kit (Molecular Devices) in assay buffer (Hanks Balanced salt solution, HBSS, 20 mM HEPES, pH 7.4, 0.1% BSA) for 1 h at room temperature and labeled cells were dispensed into either black 96 well or 384 well assay plates (Greiner). Calcium mobilization induced by urotensin or test compounds was measured in the Flexstation 384 (excitation, 485 nm; emission, 525 nm) for 70 seconds. Agonist activity was determined by direct addition of ligand or peptides, while antagonists were identified by spiking the cells with test compounds prior to urotensin addition. A dose response curve (compound concentration versus % maximum response for urotensin) was determined for each active agonist and antagonist and was fitted to a four parameter logistic equation using SoftmaxPro 4.8 (Molecular Devices), from which EC50% and IC50% values were calculated.
On the technique in general: Calcium flux is commonly read through the fluorescence of an indicator in the cells.

The nature of data set [3]: in vitro. The format is cell-based. The method, then: (§1) The cytotoxicity of the peptides to HELA cells (Acc57) and COS-7 cells (CRL-1651) was determined using the MTT reduction assay. Briefly, the method was as follows: 7000 HELA cells/well and 4500 COS-7 cells/well were seeded and grown in 96-well microtiter plates for 24 h at 37° C. at 5% CO2. Thereafter, time zero (Tz) was determined by MTT reduction (see below). The supernatant of the remaining wells was discarded, and fresh medium and compounds in serial dilutions (12.5, 25 and 50 μM, triplicates) were pipetted into the wells. After incubation of the cells for 48 h at 37° C. at 5% CO2 the supernatant was discarded again and 100 μL MTT reagent (0.5 mg/mL in RPMI1640 and DMEM, respectively)/well was added. Following incubation at 37° C. for 2 h the media were aspirated and the cells were spiked (100 μl isopropanol/well). The absorbance of the solubilized formazan was measured at 595 nm (OD595peptide). For each concentration averages were calculated from triplicates. The percentage of growth was calculated as follows: (OD595peptide-OD595Tz-OD595Empty well)/(OD595Tz-OD595Empty well)×100%. The GI50 (Growth Inhibition) concentrations were calculated for each peptide by using a trend line function for the concentrations (50, 25, 12.5 and 0 μM), the corresponding percentages and the value 50, (=TREND (C50:C0,%50:%0,50).

Data set [4] can be described thus: Plasma stability, human plasma. The format is in vitro ADME. To be noted: 37° C., sampled up to 240 min. As to the method:
(§2) The stability of the peptides in human and mouse plasma was determined by applying the following method: 315 μl/deep well of freshly thawed human plasma (Basler Blutspende-dienst) and mouse plasma (Harlan Sera-Lab, UK), respectively, were spiked with 35 μl/well of compound in PBS (100 μM, triplicate) and incubated at 37° C. At t=0, 15, 30, 60, 120 and 240 min aliquots of 50 μl were transferred to filtration plate wells containing 150 μl/well of acetonitrile. Following shaking for 2 min the occurred suspensions were filtrated by vacuum and finally. 100 μl of each filtrate were transferred to a propylene microtiter plate, and analyzed by LC/MS as follows: Column: Waters, XBridge C18, mobile phases: (A) water+0.1% formic acid and (B) acetonitrile/water, 95/5 (v/v)+0.1% formic acid, gradient: 5%-100% (B) in 2 minutes, electrospray ionization, MRM detection (triple quadrupole). The peak areas were determined and triplicate values were averaged. The stability was expressed in percent of the initial value at t=0. (tx/t0×100). By using the TREND function of EXCEL (Microsoft Office 2003) T1/2 were determined.

A short description of data set [5]: in vitro. The class given is cell-based. As to the method:
as §1
This is another data set of the same source.

Data set [6] can be described thus: Plasma stability, mouse plasma. The format is in vitro ADME. To be noted: 37° C., sampled up to 240 min. As to the method: as §2
Data set [7] has as its target T2, human UTR2 receptor (human, UniProt Q9UKP6 1-389).
T2 sequence (looked up): T1 sequence (Q9UKP6 1-389)
Description: cell-based or functional assay.

By EC50 is commonly meant the concentration at which the effect is half-maximal. A word on the GI50: it is the concentration that inhibits growth by half. Consider `CC(C)[C@@H]1NC(=O)[C@@H]2CSSC[C@H](NC(=O)[C@H](CC(=O)O)NC(=O)[C@@H]3CCCN3C(=O)[C@H]3CCCN3C1=O)C(=O)N[C@@H](Cc1ccccc1)C(=O)N[C@@H](Cc1c[nH]c3ccccc13)C(=O)N[C@@H](CCCCN)C(=O)N[C@@H](Cc1ccc(O)cc1)C(=O)N2` [compound 31], for which the “Hemolysis at 100 μM [%]” value in data set [1] is reported as 0%. The EC50 in data set [2] was < 0.002 µM. The GI50 in data set [3] and in data set [5] was > 50 µM each time. Moreover, the “Plasmastability human pl. T1/2” value in data set [4] amounted to 4 h. Further, the “Plasmastability mouse pl. T1/2” value in data set [6] was 4 h.

As to `CC(C)[C@@H]1NC(=O)[C@@H]2CSSC[C@H](NC(=O)[C@H](CC(=O)O)NC(=O)[C@@H]3CCCN3C(=O)[C@H]3CCCN3C1=O)C(=O)N[C@@H](Cc1ccccc1)C(=O)N[C@H](Cc1c[nH]c3ccccc13)C(=O)N[C@@H](CCCCN)C(=O)N[C@@H](Cc1ccc(O)cc1)C(=O)N2` [compound 34], in data set [1], the “Hemolysis at 100 μM [%]” value is 0%. In addition, in data set [2], the EC50 was < 0.002 µM. Besides, the 50% growth inhibitory concentration (GI50) in data set [3] and in data set [5] was > 50 µM each time. The “Plasmastability human pl. T1/2” value in data set [4] is 4 h. Besides, the “Plasmastability mouse pl. T1/2” value in data set [6] was 4 h.

In the case of `CC(C)C[C@@H]1NC(=O)[C@@H]2CSSC[C@H](NC(=O)[C@H](CC(=O)O)NC(=O)[C@@H]3CCCN3C(=O)[C@H]3CCCN3C1=O)C(=O)N[C@@H](Cc1ccc(O)cc1)C(=O)N[C@@H](Cc1c[nH]c3ccccc13)C(=O)N[C@@H](CCCCN)C(=O)N[C@@H](Cc1ccc(O)cc1)C(=O)N2` [compound 33], in data set [1], the “Hemolysis at 100 μM [%]” value came out at 0%. In data set [2], the EC50 was < 0.002 µM. In addition, the GI50 in data set [3] and in data set [5] was > 50 µM in each case. Also, the “Plasmastability human pl. T1/2” value in data set [4] was 4 h. Besides, the “Plasmastability mouse pl. T1/2” value in data set [6] came out at 4 h.

For `CC(C)C[C@@H]1NC(=O)[C@@H]2CSSC[C@H](NC(=O)[C@H](CC(=O)O)NC(=O)[C@@H]3CCCN3C(=O)[C@@H](CCC(=O)O)NC1=O)C(=O)N[C@@H](Cc1ccccc1)C(=O)N[C@@H](Cc1c[nH]c3ccccc13)C(=O)N[C@@H](CCCCN)C(=O)N[C@@H](Cc1ccc(O)cc1)C(=O)N2` [compound 30], the “Hemolysis at 100 μM [%]” value in data set [1] is 0%. Moreover, the concentration for a half-maximal effect (EC50) in data set [2] was < 0.002 µM. Further, the 50% growth inhibitory concentration (GI50) in data set [3] and in data set [5] was > 50 µM in each case. Further, in data set [4], the “Plasmastability human pl. T1/2” value was found to be 4 h. Also, the “Plasmastability mouse pl. T1/2” value in data set [6] is 4 h.

Turning to `CC(C)[C@@H]1NC(=O)[C@@H]2CSSC[C@H](NC(=O)[C@H](CC(=O)O)NC(=O)[C@@H]3CCCN3C(=O)[C@H]3CCCN3C1=O)C(=O)N[C@@H](Cc1ccccc1)C(=O)N[C@H](Cc1c[nH]c3ccccc13)C(=O)N[C@@H](CCCN)C(=O)N[C@@H](Cc1ccc(O)cc1)C(=O)N2` [compound 32] (cyclo(DCF[dW][Orn]YCV[dP]P); disulfide 2-7), the “Hemolysis at 100 μM [%]” value in data set [1] was 0%. Moreover, the GI50 at 48 h in data set [3] (human) and in data set [5] (African green monkey) was > 50 µM throughout. For the same molecule, the “Plasmastability human pl. T1/2” value in data set [4] came out at 4 h. For the same molecule, the “Plasmastability mouse pl. T1/2” value in data set [6] was 4 h.

On to `CC(C)C[C@@H]1NC(=O)[C@@H]2CSSC[C@H](NC(=O)[C@H](CC(=O)O)NC(=O)[C@@H]3CCCN3C(=O)[C@@H](CO)NC1=O)C(=O)N[C@@H](Cc1ccccc1)C(=O)N[C@@H](Cc1c[nH]c3ccccc13)C(=O)N[C@@H](CCCCN)C(=O)N[C@@H](Cc1ccc(O)cc1)C(=O)N2` [Ex. 28], for which the “Hemolysis at 100 μM [%]” value in data set [1] stood at 0%. Also, the EC50 in data set [2] is < 0.002 µM. The GI50 in data set [3] and in data set [5] was > 50 µM in each case. Further, in data set [4], the “Plasmastability human pl. T1/2” value amounted to 4 h. In addition, in data set [6], the “Plasmastability mouse pl. T1/2” value is 4 h.

B1: Ex. 28 (peptide)
peptide: cyclo(DCFWKYCL[dS]P)
modifications: disulfide 2-7
SMILES: CC(C)C[C@@H]1NC(=O)[C@@H]2CSSC[C@H](NC(=O)[C@H](CC(=O)O)NC(=O)[C@@H]3CCCN3C(=O)[C@@H](CO)NC1=O)C(=O)N[C@@H](Cc1ccccc1)C(=O)N[C@@H](Cc1c[nH]c3ccccc13)C(=O)N[C@@H](CCCCN)C(=O)N[C@@H](Cc1ccc(O)cc1)C(=O)N2
B1: the “EC50% (Ca2+ assay, agonist activity)” value in data set [7] was < 0.002 µM.

On to cyclo(DCFWKYCV[dP]P) (disulfide 2-7) [Ex. 31], for which, in data set [7], the “EC50% (Ca2+ assay, agonist activity)” value was < 0.002 µM.

B2: Ex. 30 (peptide)
peptide: cyclo(DCFWKYCL[dE]P)
modifications: disulfide 2-7
SMILES: CC(C)C[C@@H]1NC(=O)[C@@H]2CSSC[C@H](NC(=O)[C@H](CC(=O)O)NC(=O)[C@@H]3CCCN3C(=O)[C@@H](CCC(=O)O)NC1=O)C(=O)N[C@@H](Cc1ccccc1)C(=O)N[C@@H](Cc1c[nH]c3ccccc13)C(=O)N[C@@H](CCCCN)C(=O)N[C@@H](Cc1ccc(O)cc1)C(=O)N2
In the case of B2, the “EC50% (Ca2+ assay, agonist activity)” value in data set [7] was < 0.002 µM.

As to cyclo(DCF[dW]KYCV[dP]P) (disulfide 2-7) [Ex. 34], the “EC50% (Ca2+ assay, agonist activity)” value in data set [7] is < 0.002 µM.

B3: Ex. 33 (peptide)
peptide: cyclo(DCYWKYCL[dP]P)
modifications: disulfide 2-7
SMILES: CC(C)C[C@@H]1NC(=O)[C@@H]2CSSC[C@H](NC(=O)[C@H](CC(=O)O)NC(=O)[C@@H]3CCCN3C(=O)[C@H]3CCCN3C1=O)C(=O)N[C@@H](Cc1ccc(O)cc1)C(=O)N[C@@H](Cc1c[nH]c3ccccc13)C(=O)N[C@@H](CCCCN)C(=O)N[C@@H](Cc1ccc(O)cc1)C(=O)N2
As for B3, in data set [7], the “EC50% (Ca2+ assay, agonist activity)” value is < 0.002 µM.
